Converted amounts (≈) assume the structure as drawn.
Key:
Type in all cases: functional
Escherichia coli [1] = assay: Antibacterial activity against Escherichia coli ATCC 8739 at 200 ug/ml after 24 hrs by agar well diffusion method; settings: ATCC 8739, 24 h, read-out: DIZ
Rhizoctonia solani [2] = assay: Antifungal activity against Rhizoctonia solani at 100 ug/ml after 72 hrs by agar well diffusion method; settings: read-out: DIZ
Bacillus subtilis [3] = assay: Antibacterial activity against Bacillus subtilis at 500 ug/ml after 24 hrs by agar well diffusion method; settings: read-out: DIZ
Staphylococcus aureus [4] = assay: Antibacterial activity against Staphylococcus aureus ATCC 6538 at 300 ug/ml after 24 hrs by agar well diffusion method; settings: ATCC 6538, 24 h, read-out: DIZ
Aspergillus flavus [5] = assay: Antifungal activity against Aspergillus flavus at 100 ug/ml after 72 hrs by agar well diffusion method; settings: read-out: DIZ
Aspergillus flavus [6] = assay: Antifungal activity against Aspergillus flavus at 200 ug/ml after 72 hrs by agar well diffusion method; settings: read-out: DIZ
Aspergillus niger [7] = assay: Antifungal activity against Aspergillus niger after 72 hrs by agar well diffusion method
Klebsiella pneumoniae [8] = assay: Antibacterial activity against Klebsiella pneumoniae at 100 ug/ml after 24 hrs by agar well diffusion method; settings: read-out: DIZ
Fusarium oxysporum [9] = assay: Antifungal activity against Fusarium oxysporum after 72 hrs by agar well diffusion method
Fusarium oxysporum [10] = assay: Antifungal activity against Fusarium oxysporum at 500 ug/ml after 72 hrs by agar well diffusion method; settings: read-out: DIZ
Escherichia coli [11] = assay: Antibacterial activity against Escherichia coli ATCC 8739 at 50 ug/ml after 24 hrs by agar well diffusion method; settings: ATCC 8739, 24 h, read-out: DIZ
Aspergillus flavus [12] = assay: Antifungal activity against Aspergillus flavus at 50 ug/ml after 72 hrs by agar well diffusion method; settings: read-out: DIZ
Aspergillus niger [13] = assay: Antifungal activity against Aspergillus niger at 200 ug/ml after 72 hrs by agar well diffusion method; settings: read-out: DIZ
Staphylococcus aureus [14] = assay: Antibacterial activity against Staphylococcus aureus ATCC 6538 at 200 ug/ml after 24 hrs by agar well diffusion method; settings: ATCC 6538, 24 h, read-out: DIZ
Bacillus subtilis [15] = assay: Antibacterial activity against Bacillus subtilis at 200 ug/ml after 24 hrs by agar well diffusion method; settings: read-out: DIZ
Klebsiella pneumoniae [16] = assay: Antibacterial activity against Klebsiella pneumoniae at 500 ug/ml after 24 hrs by agar well diffusion method; settings: read-out: DIZ
Staphylococcus aureus [17] = assay: Antibacterial activity against Staphylococcus aureus ATCC 6538 at 500 ug/ml after 24 hrs by agar well diffusion method; settings: ATCC 6538, 24 h, read-out: DIZ
Rhizoctonia solani [18] = assay: Antifungal activity against Rhizoctonia solani at 50 ug/ml after 72 hrs by agar well diffusion method; settings: read-out: DIZ
Rhizoctonia solani [19] = assay: Antifungal activity against Rhizoctonia solani at 500 ug/ml after 72 hrs by agar well diffusion method; settings: read-out: DIZ
Staphylococcus aureus [20] = assay: Antibacterial activity against Staphylococcus aureus ATCC 6538 at 50 ug/ml after 24 hrs by agar well diffusion method; settings: ATCC 6538, 24 h, read-out: DIZ
Aspergillus niger [21] = assay: Antifungal activity against Aspergillus niger at 100 ug/ml after 72 hrs by agar well diffusion method; settings: read-out: DIZ
Aspergillus niger [22] = assay: Antifungal activity against Aspergillus niger at 50 ug/ml after 72 hrs by agar well diffusion method; settings: read-out: DIZ
Staphylococcus aureus [23] = assay: Antibacterial activity against Staphylococcus aureus ATCC 6538 after 24 hrs by agar well diffusion method; settings: ATCC 6538, 24 h
Klebsiella pneumoniae [24] = assay: Antibacterial activity against Klebsiella pneumoniae at 300 ug/ml after 24 hrs by agar well diffusion method; settings: read-out: DIZ
Aspergillus flavus [25] = assay: Antifungal activity against Aspergillus flavus at 500 ug/ml after 72 hrs by agar well diffusion method; settings: read-out: DIZ
Aspergillus flavus [26] = assay: Antifungal activity against Aspergillus flavus after 72 hrs by agar well diffusion method
Bacillus subtilis [27] = assay: Antibacterial activity against Bacillus subtilis at 100 ug/ml after 24 hrs by agar well diffusion method; settings: read-out: DIZ
Klebsiella pneumoniae [28] = assay: Antibacterial activity against Klebsiella pneumoniae after 24 hrs by agar well diffusion method
Bacillus subtilis [29] = assay: Antibacterial activity against Bacillus subtilis at 50 ug/ml after 24 hrs by agar well diffusion method; settings: read-out: DIZ
Aspergillus niger [30] = assay: Antifungal activity against Aspergillus niger at 300 ug/ml after 72 hrs by agar well diffusion method; settings: read-out: DIZ
Escherichia coli [31] = assay: Antibacterial activity against Escherichia coli ATCC 8739 after 24 hrs by agar well diffusion method; settings: ATCC 8739, 24 h
Klebsiella pneumoniae [32] = assay: Antibacterial activity against Klebsiella pneumoniae at 200 ug/ml after 24 hrs by agar well diffusion method; settings: read-out: DIZ
Fusarium oxysporum [33] = assay: Antifungal activity against Fusarium oxysporum at 200 ug/ml after 72 hrs by agar well diffusion method; settings: read-out: DIZ
Bacillus subtilis [34] = assay: Antibacterial activity against Bacillus subtilis at 300 ug/ml after 24 hrs by agar well diffusion method; settings: read-out: DIZ
Aspergillus niger [35] = assay: Antifungal activity against Aspergillus niger at 500 ug/ml after 72 hrs by agar well diffusion method; settings: read-out: DIZ
Escherichia coli [36] = assay: Antibacterial activity against Escherichia coli ATCC 8739 at 300 ug/ml after 24 hrs by agar well diffusion method; settings: ATCC 8739, 24 h, read-out: DIZ
Escherichia coli [37] = assay: Antibacterial activity against Escherichia coli ATCC 8739 at 100 ug/ml after 24 hrs by agar well diffusion method; settings: ATCC 8739, 24 h, read-out: DIZ
Bacillus subtilis [38] = assay: Antibacterial activity against Bacillus subtilis after 24 hrs by agar well diffusion method
Klebsiella pneumoniae [39] = assay: Antibacterial activity against Klebsiella pneumoniae at 50 ug/ml after 24 hrs by agar well diffusion method; settings: read-out: DIZ
Fusarium oxysporum [40] = assay: Antifungal activity against Fusarium oxysporum at 50 ug/ml after 72 hrs by agar well diffusion method; settings: read-out: DIZ
Aspergillus flavus [41] = assay: Antifungal activity against Aspergillus flavus at 300 ug/ml after 72 hrs by agar well diffusion method; settings: read-out: DIZ
Escherichia coli [42] = assay: Antibacterial activity against Escherichia coli ATCC 8739 at 500 ug/ml after 24 hrs by agar well diffusion method; settings: ATCC 8739, 24 h, read-out: DIZ
Rhizoctonia solani [43] = assay: Antifungal activity against Rhizoctonia solani after 72 hrs by agar well diffusion method
Staphylococcus aureus [44] = assay: Antibacterial activity against Staphylococcus aureus ATCC 6538 at 100 ug/ml after 24 hrs by agar well diffusion method; settings: ATCC 6538, 24 h, read-out: DIZ
Rhizoctonia solani [45] = assay: Antifungal activity against Rhizoctonia solani at 200 ug/ml after 72 hrs by agar well diffusion method; settings: read-out: DIZ
Fusarium oxysporum [46] = assay: Antifungal activity against Fusarium oxysporum at 300 ug/ml after 72 hrs by agar well diffusion method; settings: read-out: DIZ
Rhizoctonia solani [47] = assay: Antifungal activity against Rhizoctonia solani at 300 ug/ml after 72 hrs by agar well diffusion method; settings: read-out: DIZ
Fusarium oxysporum [48] = assay: Antifungal activity against Fusarium oxysporum at 100 ug/ml after 72 hrs by agar well diffusion method; settings: read-out: DIZ

COc1ccc2c(c1)c(C=C1C(=O)OC(C)(C)OC1=O)cn2C gave a zone of inhibition at 200 µg/mL (Escherichia coli [1]) of 15 mm, a zone of inhibition at 100 µg/mL (Rhizoctonia solani [2]) of 12 mm and a zone of inhibition at 500 µg/mL (Bacillus subtilis [3]) of 22 mm. The zone of inhibition at 300 µg/mL (Staphylococcus aureus [4]) was 16 mm, the zone of inhibition at 100 µg/mL (Aspergillus flavus [5]) was 9 mm and the zone of inhibition at 200 µg/mL (Aspergillus flavus [6]) was 12 mm. It also gave an MIC (Aspergillus niger [7]) of 40 µg/mL (≈ 127 µM), a zone of inhibition at 100 µg/mL (Klebsiella pneumoniae [8]) of 14 mm and an MIC (Fusarium oxysporum [9]) of 35 µg/mL (≈ 111 µM). For the same compound, the zone of inhibition at 500 µg/mL (Fusarium oxysporum [10]) was 29 mm, the zone of inhibition at 50 µg/mL (Escherichia coli [11]) was 8 mm and the zone of inhibition at 50 µg/mL (Aspergillus flavus [12]) was 4 mm. The zone of inhibition at 200 µg/mL (Aspergillus niger [13]) was 14 mm, the zone of inhibition at 200 µg/mL (Staphylococcus aureus [14]) was 13 mm and the zone of inhibition at 200 µg/mL (Bacillus subtilis [15]) was 11 mm. It also gave a zone of inhibition at 500 µg/mL (Klebsiella pneumoniae [16]) of 32 mm, a zone of inhibition at 500 µg/mL (Staphylococcus aureus [17]) of 26 mm and a zone of inhibition at 50 µg/mL (Rhizoctonia solani [18]) of 7 mm. It also gave a zone of inhibition at 500 µg/mL (Rhizoctonia solani [19]) of 29 mm, a zone of inhibition at 50 µg/mL (Staphylococcus aureus [20]) of 6 mm and a zone of inhibition at 100 µg/mL (Aspergillus niger [21]) of 10 mm. The zone of inhibition at 50 µg/mL (Aspergillus niger [22]) was 6 mm, the MIC (Staphylococcus aureus [23]) was 25 µg/mL (≈ 79.3 µM) and the zone of inhibition at 300 µg/mL (Klebsiella pneumoniae [24]) was 23 mm. For the same compound, the zone of inhibition at 500 µg/mL (Aspergillus flavus [25]) was 23 mm, the MIC (Aspergillus flavus [26]) was 40 µg/mL (≈ 127 µM) and the zone of inhibition at 100 µg/mL (Bacillus subtilis [27]) was 9 mm. For the same compound, the MIC (Klebsiella pneumoniae [28]) was 15 µg/mL (≈ 47.6 µM), the zone of inhibition at 50 µg/mL (Bacillus subtilis [29]) was 4 mm and the zone of inhibition at 300 µg/mL (Aspergillus niger [30]) was 18 mm. It also gave an MIC (Escherichia coli [31]) of 15 µg/mL (≈ 47.6 µM), a zone of inhibition at 200 µg/mL (Klebsiella pneumoniae [32]) of 18 mm and a zone of inhibition at 200 µg/mL (Fusarium oxysporum [33]) of 16 mm. For the same compound, the zone of inhibition at 300 µg/mL (Bacillus subtilis [34]) was 14 mm, the zone of inhibition at 500 µg/mL (Aspergillus niger [35]) was 25 mm and the zone of inhibition at 300 µg/mL (Escherichia coli [36]) was 20 mm. The zone of inhibition at 100 µg/mL (Escherichia coli [37]) was 13 mm, the MIC (Bacillus subtilis [38]) was 30 µg/mL (≈ 95.1 µM) and the zone of inhibition at 50 µg/mL (Klebsiella pneumoniae [39]) was 9 mm. For the same compound, the zone of inhibition at 50 µg/mL (Fusarium oxysporum [40]) was 7 mm, the zone of inhibition at 300 µg/mL (Aspergillus flavus [41]) was 15 mm and the zone of inhibition at 500 µg/mL (Escherichia coli [42]) was 31 mm. For the same compound, the MIC (Rhizoctonia solani [43]) was 35 µg/mL (≈ 111 µM), the zone of inhibition at 100 µg/mL (Staphylococcus aureus [44]) was 10 mm and the zone of inhibition at 200 µg/mL (Rhizoctonia solani [45]) was 16 mm. For the same compound, the zone of inhibition at 300 µg/mL (Fusarium oxysporum [46]) was 21 mm, the zone of inhibition at 300 µg/mL (Rhizoctonia solani [47]) was 21 mm and the zone of inhibition at 100 µg/mL (Fusarium oxysporum [48]) was 12 mm.
